# Experimental data reported in patent publication US7049332B2, “HIV inhibiting N-aminoimidazole derivatives” (K. U. Leuven Research & Development, priority 2001, dated 2006).
# Tests used:
# HIV-1 (NL4.3 WT) = experiment: Inhibition of HIV-induced cytopathogenic effect in MT-4 cells (MTT), HIV-1; type: cell-based; details: for IC50: Human immunodeficiency virus 1, MT4, 50% protection against HIV-induced cytopathogenic effect, MT-4 cells, MTT; for HIV-1 (NL4.3 WT) SI: selectivity index = ratio of CC50 to IC50, HIV-1
# Method: (§1) A rapid and automated assay procedure was used for the in vitro evaluation of anti-HIV agents. An HTLV-1 transformed T4-cell line MT-4, which was previously shown to be highly susceptible to and permissive for HIV infection, served as the target cell line. Inhibition of the HIV-induced cytopathogenic effect was used as the end point. The viabitlity of both HIV-and mock-infected cells was assessed spectrophotometrically via in situ reduction of 3-(4,5-dimethylthiazol-2-yl)-2,5-diphenyltetrazolium bromide (MTT). The 50% cytotoxic concentration (CC50 in μg/ml) was defined as the concentration of compound that reduced the absorbance of the mock-infected control sample by 50%. The percent protection achieved by the compound in HIV-infected cells was calculated by the following formula:
# (§2) [formula] whereby (ODT)HIV is the optical density measured with a given concentration of the test compound in HIV-infected cells; (ODC)HIV is the optical density measured for the control untreated HIV-infected cells; (ODC)MOCK is the optical density measured for the control untreated mock-infected cells; all optical density values were determined at 540 nm. The dose achieving 50% protection according to the above formula was defmed as the 50% inhibitory concentration (IC50 in μg/ml). The ratio of CC50 to IC50 was defined as the selectivity index (SI).
# (§3) Cells: MT-4 cells (Miyoshi et al., 1982) were grown and maintained in RPMI 1640 medium supplemented with 10% heat-inactivated fetal calf serum, 2 mM 1-glutamine, 0.1% sodium bicarbonate, and 20 œg of gentamicin per ml.
# (§4) Viruses: The HIV-1(NL4.3) strain (Adachi et al., 1986) is a molecular clone obtained from the National Institutes of Health (Bethesda, Md.). The HIV-2(ROD) (Barr,-Sinoussi et al., 1983) stock was obtained from culture supernatant of HIV-2 infected cell lines.
# HIV-2 (ROD) = experiment: Inhibition of HIV-induced cytopathogenic effect in MT-4 cells (MTT), HIV-2; type: cell-based; details: for IC50: Human immunodeficiency virus 2, MT4, 50% protection against HIV-induced cytopathogenic effect, MT-4 cells, MTT; for HIV-2 (ROD) SI: selectivity index = ratio of CC50 to IC50, HIV-2
# Method: as §1, §2, §3, §4
# [1] = Cytotoxicity in mock-infected MT-4 cells (MTT); type: cell-based; details: human; mock-infected MT-4 cells, absorbance reduced by 50%, MTT
# Method: as §1, with “formula: Examples of inhibition of cell proliferation by particular compounds of formula (I) can be found by looking at the respective CC50 values in the MT-4 cell line. Cells: MT-4 cells (Miyoshi et al., 1982) were grown and maintained in RPMI 1640 medium supplemented with 10% heat-inactivated fetal calf serum, 2 mM […], 0.1% sodium bicarbonate, and 20 œg of gentamicin per ml.” for “formula:”
Compound,melting point [°C],also measured
CSc1nc(C)c(-c2ccccc2)n1Nc1cccc(Cl)c1,215,
Cc1nc(SCc2ccccc2)n(Nc2cccc(Cl)c2)c1-c1ccccc1,130,
"Cc1[nH]c(=S)n(Nc2cccc(Cl)c2)c1-c1ccccc1 [Compound 9.01, 1-(3-Chlorophenylamino)-2,3-dihydro-4-methyl-5-phenyl-1H-imidazole-2-thione]",215 to 217,IC50 (HIV-1 (NL4.3 WT)): 2.8 µg/mL; HIV-1 (NL4.3 WT) SI (HIV-1 (NL4.3 WT)): 7.6; IC50 (HIV-2 (ROD)): 2.6 µg/mL; HIV-2 (ROD) SI (HIV-2 (ROD)): 8.4; CC50 [1]: 21.5 µg/mL
"Cc1[nH]c(=S)n(Nc2ccccc2Cl)c1-c1ccccc1 [Compound 9.02, 1-(2-Chlorophenylamino)-2,3-dihydro-4-methyl-5-phenyl-1H-imidazole-2-thione]",220 to 221,IC50 (HIV-1 (NL4.3 WT)): 7.4 µg/mL; HIV-1 (NL4.3 WT) SI (HIV-1 (NL4.3 WT)): 9.0; IC50 (HIV-2 (ROD)): > 65 µg/mL; HIV-2 (ROD) SI (HIV-2 (ROD)): <1; CC50 [1]: 65 µg/mL
"Cc1[nH]c(=S)n(Nc2ccc(F)cc2)c1-c1ccccc1 [Compound 9.03, 2,3-Dihydro-1-(4-fluorophenylamino)-4-methyl-5-phenyl-1H-imidazole-2-thione]",228,
"Cc1[nH]c(=S)n(Nc2ccc(Cl)cc2)c1-c1ccccc1 [Compound 9.04, 1-(4-Chlorophenylamino)-2,3-dihydro-4-methyl-5-phenyl-1H-imidazole-2-thione]",212 to 214,
"Cc1[nH]c(=S)n(Nc2cccc(Cl)c2)c1-c1cccc(Br)c1 [Compound 9.05, 5-(3-Bromophenyl)-1-(3-chlorophenylamino)-2,3-dihydro-4-methyl-1H-imidazole-2-thione]",196,IC50 (HIV-1 (NL4.3 WT)): 2.2 µg/mL; HIV-1 (NL4.3 WT) SI (HIV-1 (NL4.3 WT)): 10.4; IC50 (HIV-2 (ROD)): 4.1 µg/mL; HIV-2 (ROD) SI (HIV-2 (ROD)): 5.5; CC50 [1]: 22.9 µg/mL
"Cc1[nH]c(=S)n(Nc2cccc(Cl)c2)c1-c1cccc(Cl)c1 [Compound 9.07, 5-(3-Chlorophenyl)-1-(3-chlorophenylamino)-2,3-dihydro-4-methyl-1H-imidazole-2-thione]",204,IC50 (HIV-1 (NL4.3 WT)): 0.9 µg/mL; HIV-1 (NL4.3 WT) SI (HIV-1 (NL4.3 WT)): 18.3; IC50 (HIV-2 (ROD)): 1.4 µg/mL; HIV-2 (ROD) SI (HIV-2 (ROD)): 11.6; CC50 [1]: 15.9 µg/mL
"Cc1[nH]c(=S)n(Nc2cccc(Cl)c2)c1-c1ccc(Cl)cc1 [Compound 9.08, 5-(4-Chlorophenyl)-1-(3-chlorophenylamino)-2,3-dihydro-4-methyl-1H-imidazole-2-thione]",225,
"COc1ccc(-c2c(C)[nH]c(=S)n2Nc2cccc(Cl)c2)cc1 [Compound 9.09, 2,3-Dihydro-1-(3-chlorophenylamino)-5-(4-methoxyphenyl)-4-methyl-1H-imidazole-2-thione]",226,
"Cc1c(-c2ccccc2)[nH]c(=S)n1Nc1cccc(Cl)c1 [Compound 9.10, 1-(3-Chlorophenylamino)-2,3-dihydro-5-methyl-4-phenyl-1H-imidazole-2-thione]",238,
"S=c1[nH]c2c(n1Nc1cccc(Cl)c1)CCCC2 [Compound 9.11, 1-(3-Chlorophenylamino)-2,3,4,5,6,7-hexahydro-1H-benzimidazole-2-thione]",148,IC50 (HIV-1 (NL4.3 WT)): 13.1 µg/mL; HIV-1 (NL4.3 WT) SI (HIV-1 (NL4.3 WT)): 2.6; IC50 (HIV-2 (ROD)): > 34 µg/mL; HIV-2 (ROD) SI (HIV-2 (ROD)): <1; CC50 [1]: 34 µg/mL
"Cc1[nH]c(=S)n(Nc2ccccc2)c1-c1ccccc1 [Compound 9.12, 2,3-Dihydro-4-methyl-5-phenyl-1-(phenylamino)-1H-imidazole-2-thione]",224 to 226,IC50 (HIV-1 (NL4.3 WT)): 5.2 µg/mL; HIV-1 (NL4.3 WT) SI (HIV-1 (NL4.3 WT)): 2.8; IC50 (HIV-2 (ROD)): > 14.7 µg/mL; HIV-2 (ROD) SI (HIV-2 (ROD)): <1; CC50 [1]: 14.7 µg/mL
"Cc1[nH]c(=S)n(Nc2cccc(Cl)c2)c1C [Compound 9.20, 2,3-Dihydro-4,5-dimethyl-1-(3-chlorophenylamino)-1H-imidazole-2-thione]",234,
"Cc1[nH]c(=S)n(Nc2ccccc2)c1C [Compound 9.21, 2,3-Dihydro-4,5-dimethyl-1-(phenylamino)-1H-imidazole-2-thione]",217 to 219,
"Cc1cccc(Nn2c(C)c(C)[nH]c2=S)c1 [Compound 9.22, 2,3-Dihydro-4,5-dimethyl-1-(3-methylphenylamino)-1H-imidazole-2-thione]",230,
"Cc1cccc(Nn2c(-c3ccccc3)c(C(C)C)[nH]c2=S)c1 [Compound 9.23, 2,3-Dihydro-4-isopropyl-1-(3-methylphenylamino)-5-phenyl-1H-imidazole-2-thione]",220 to 222,

Compound,melting point [°C],also measured
"CCc1[nH]c(=S)n(Nc2cccc(Cl)c2)c1-c1ccccc1 [Compound 9.24, 1-(3-Chlorophenylamino)-2,3-dihydro-4-ethyl-5-phenyl-1H-imidazole-2-thione]",116 to 118,
"S=c1[nH]c(-c2ccccc2)c(-c2ccccc2)n1Nc1cccc(Cl)c1 [Compound 9.26, 1-(3-Chlorophenylamino)-2,3-dihydro-4,5-diphenyl-1H-imidazole-2-thione]",178 to 180,
"COC(=O)c1c(C)[nH]c(=S)n1Nc1cccc(Cl)c1 [Compound 9.27, 1-(3-Chlorophenylamino)-2,3-dihydro-5-methoxycarbonyl-4-methyl-1H-imidazole-2-thione]",194 to 196,
"Cc1[nH]c(=S)n(Nc2cccc(Cl)c2)c1C(=O)O [Compound 9.28, 1-(3-Chlorophenylamino)-2,3-dihydro-5-hydroxycarbonyl-4-methyl-1H-imidazole-2-thione]",166 to 168,
"COC(=O)c1[nH]c(=S)n(Nc2cccc(Cl)c2)c1C [Compound 9.29, 1-(3-Chlorophenylamino)-2,3-dihydro-4-methoxycarbonyl-5-methyl-1H-imidazole-2-thione]",160 to 162,
"COC(=O)c1cccc(-c2c(C)[nH]c(=S)n2Nc2cccc(C)c2)c1 [Compound 9.35, 2,3-Dihydro-4-methyl-1-(3-methylphenylamino)-5-(3-methoxycarbonylphenyl)-1H-imidazole-2-thione]",164 to 166,
"Clc1cccc(Nn2cnc3c2CCCC3)c1 [Compound 13.04, 1-(3-Chlorophenylamino)-4,5,6,7-tetrahydro-1H-benzimidazole]",180,
"Cc1ncn(Nc2ccccc2)c1-c1ccccc1 [Compound 13.05, 4-Methyl-5-phenyl-1-phenylamino-1H-imidazole]",165 to 167,
"Cc1ncn(Nc2ccccc2)c1C [Compound 13.06, 4,5-Dimethyl-1-phenylamino-1H-imidazole]",178,
"Cc1ncn(Nc2cccc(Cl)c2)c1C [Compound 13.07, 1-(3-Chlorophenylamino)-4,5-dimethyl-1H-imidazole]",146,
"Cc1cccc(Nn2cnc(C)c2C)c1 [Compound 13.08, 4,5-Dimethyl-1-(3-methylphenylamino)-1H-imidazole]",144,
"Cc1ncn(Nc2ccc(F)cc2)c1-c1ccccc1 [Compound 13.10, 1-(4-Fluorophenylamino)-4-methyl-5-phenyl-1H-imidazole]",155,
"CCc1ncn(Nc2cccc(C)c2)c1-c1ccccc1 [Compound 13.11, 4-Ethyl-1-(3-methylphenylamino)-5-phenyl-1H-imidazole]",158 to 160,
"Cc1cc(C)cc(Nn2cnc(C)c2-c2ccccc2)c1 [Compound 13.13, 1-(3,5-Dimethylphenylamino)-4-methyl-5-phenyl-1H-imidazole]",154 to 156,
"COc1cccc(Nn2cnc(C)c2-c2ccccc2)c1 [Compound 13.14, 1-(3-Methoxyphenylamino)-4-methyl-5-phenyl-1H-imidazole]",156 to 158,
"Cc1cccc(Nn2cnc(C)c2-c2cccc(C#N)c2)c1 [Compound 13.16, 5-(3-Cyanophenyl)-4-methyl-1-(3-methylphenylamino)-1H-imidazole]",138 to 140,
